Assay results as given in paper PMC11276849, “A Female-Biased Chemosensory Protein PxutCSP19 in the Antennae of Papilio xuthus Tuned to Host Volatiles and Insecticides” (Insects, 2024).
Where two headings read alike, the source gives them in different places.

Assays:
PxutCSP19 [1] = target: T1, PxutCSP19 (Papilio xuthus, UniProt A0A194QJK0); test: Fluorescence competitive binding assay (1-NPN displacement), wildtype PxutCSP19; conditions: for inhibition at 20 µM: read-out: F.D. (fluorescent displacement rate of ligands), Wildtype (WT), ligand at 20 μM, PxutCSP19/1-NPN each 2 μM, NB = no binding
Description: The open reading frame (ORF) of PxutCSP19 was cloned with a PrimeSTAR®® Max DNA Polymerase (TaKaRa, Liaoning, Dalian, China) and gene-specific primers containing restriction enzyme sites (BamH I and Xho I) (Table S2). The PCR products were detected on a 1.5% (w/v) agarose gel, and the expected bands were cut and purified using a HiPure Gel Pure DNA Mini Kit (Magen, Guangzhou, China). Next, BamH I and Xho I were used to digest the PxutCSP19 products and pET-30a (+) plasmids, followed by purification. A T4 DNA ligase (Thermo Fisher Scientific, Waltham, MA, USA) was applied to the construction of the recombinant plasmids pET-30a (+)/PxutCSP19. After being confirmed by sequencing, the plasmids were transformed into BL21 (DE3) competent cells so as to express recombinant proteins with 1.0 mM isopropyl β-D-thiogalactoside (IPTG). Because this recombinant protein pET-30a (+)/PxutCSP19 was insoluble, we applied a protein denaturation–renaturation approach to purify PxutCSP19 with an affinity chromatography technique, in which the denaturation buffer included 8 M urea and 1.0 mM β-mercaptoethanol.
(§1) In order to investigate the ligand-binding properties of PxutCSP19 to host odorants and insecticides, we first asked whether this fluorescent probe 1-NPN was available for the binding of PxutCSP19. To calculate the binding ability of PxutCSP19 to 1-NPN, we titrated different final concentrations of 1-NPN (2~20 μM) into Tris-HCl buffer (pH 7.4) containing 2 μM PxutCSP19. The binding constant (K1-NPN) of 1-NPN to this protein was determined with GraphPad Prism 7 (GraphPad Software Inc., San Diego, CA), as previously described. The solution was excited at 337 nm and the emission peak was monitored at 414 nm on an RF-5301PC spectrofluorometer (Shimadzu, Kyoto, Japan) using a quartz micro-cuvette filled with a 100 μL mixture, with 5 nm excitation and emission slit widths. If the host odorant molecules could displace more than 40% of the 1-NPN fluorescence from the binding cavity of PxutCSP19, the compounds would be continuously added up to 36 μM with triplicates. For the binding experiments, each compound would be added into the PxutCSP19/1-NPN (each 2 μM) complex with final concentrations of 2~20 μM. […] We used the Ki values to compare the binding affinities of various ligands with the equation: Ki = [IC50]/(1 + [1-NPN]/K1-NPN), where IC50 represents the ligand concentrations displacing one half of the initial protein/1-NPN fluorescence, and [1-NPN] is the free concentration of 1-NPN at 2 μM.

PxutCSP19-T1 [2] = target: T2, PxutCSP19-T1 (Papilio xuthus, UniProt A0A194QJK0); test: Fluorescence competitive binding assay (1-NPN displacement), truncated PxutCSP19-T1; conditions: for inhibition at 20 µM: T1 (17 N-terminal residues truncated), ligand at 20 μM, read-out: F.D. (fluorescent displacement rate of ligands); for Ki: Ki = [IC50]/(1 + [1-NPN]/K1-NPN)
T2 sequence (A0A194QJK0 35-142): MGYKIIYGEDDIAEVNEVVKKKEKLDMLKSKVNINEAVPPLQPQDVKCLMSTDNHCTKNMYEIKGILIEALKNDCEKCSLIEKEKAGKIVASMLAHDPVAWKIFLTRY
Protocol: as §1
(§2) To determine the effects of an extended N-terminal sequence (approximately 35 amino acids) on the binding specificity of PxutCSP19 to ligands, we next constructed two truncated PxutCSP19s. Firstly, the front 17 amino acids (i.e., EITIGGIERTMSPGVKS, defined as PxutCSP19-T1) and the front 35 amino acids (i.e., […], defined as PxutCSP19-T2) of the N-terminal region without the signal peptide were truncated, respectively. Secondly, the two truncated ORFs (PxutCSP19-T1: 360 bp and PxutCSP19-T2: 306 bp) of PxutCSP19s were separately amplified using RT–PCR with gene-specific primers (Table S2). After that, the amplified products were sub-cloned into pET-30a (+), i.e., pET-30a (+)/PxutCSP19-T1 and pET-30a (+)/PxutCSP19-T2. Using the above-described methods for the expression and purification of proteins, we obtained two truncated proteins. Furthermore, the binding characteristics of the truncated PxutCSP19s to ligands with high affinities were investigated, representing six host odorants and eight insecticides.

PxutCSP19-T2 [3] = target: T3, PxutCSP19-T2 (Papilio xuthus, UniProt A0A194QJK0); test: Fluorescence competitive binding assay (1-NPN displacement), truncated PxutCSP19-T2; conditions: for inhibition at 20 µM: T2 (35 N-terminal residues truncated), ligand at 20 μM, read-out: F.D. (fluorescent displacement rate of ligands); for Ki: Ki = [IC50]/(1 + [1-NPN]/K1-NPN)
T3 sequence (A0A194QJK0 53-142): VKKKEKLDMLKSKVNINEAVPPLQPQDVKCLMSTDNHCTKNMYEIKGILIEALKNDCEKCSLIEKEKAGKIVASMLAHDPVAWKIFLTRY
Protocol: as §1, §2

PxutCSP19 [4] = target: T1, PxutCSP19; test: Binding of fluorescent probe 1-NPN to wildtype PxutCSP19 (titration, Scatchard)
Protocol: (§3) In order to investigate the ligand-binding properties of PxutCSP19 to host odorants and insecticides, we first asked whether this fluorescent probe 1-NPN was available for the binding of PxutCSP19. To calculate the binding ability of PxutCSP19 to 1-NPN, we titrated different final concentrations of 1-NPN (2~20 μM) into Tris-HCl buffer (pH 7.4) containing 2 μM PxutCSP19. The binding constant (K1-NPN) of 1-NPN to this protein was determined with GraphPad Prism 7 (GraphPad Software Inc., San Diego, CA), as previously described. The solution was excited at 337 nm and the emission peak was monitored at 414 nm on an RF-5301PC spectrofluorometer (Shimadzu, Kyoto, Japan) using a quartz micro-cuvette filled with a 100 μL mixture, with 5 nm excitation and emission slit widths. If the host odorant molecules could displace more than 40% of the 1-NPN fluorescence from the binding cavity of PxutCSP19, the compounds would be continuously added up to 36 μM with triplicates. For the binding experiments, each compound would be added into the PxutCSP19/1-NPN (each 2 μM) complex with final concentrations of 2~20 μM. […]

PxutCSP19-T1 [5] = target: T2, PxutCSP19-T1; test: Binding of fluorescent probe 1-NPN to PxutCSP19-T1 (titration, Scatchard); conditions: read-out: K1-NPN (binding constant of 1-NPN)
Protocol: as §3

PxutCSP19-T2 [6] = target: T3, PxutCSP19-T2; test: Binding of fluorescent probe 1-NPN to PxutCSP19-T2 (titration, Scatchard); conditions: read-out: K1-NPN (binding constant of 1-NPN)
Protocol: as §3

T1 sequence (A0A194QJK0 entry or part of it): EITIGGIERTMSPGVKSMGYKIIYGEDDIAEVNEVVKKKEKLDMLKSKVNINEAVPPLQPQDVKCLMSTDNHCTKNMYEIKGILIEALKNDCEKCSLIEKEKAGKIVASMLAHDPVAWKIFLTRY

Compound	IC50 (PxutCSP19 [1]) [µM]	inhibition at 20 µM (PxutCSP19 [1]) [%]	Ki (PxutCSP19-T1 [2]; T1) [µM]	IC50 (PxutCSP19-T1 [2]; T1, read-out: IC50) [µM]	Ki (PxutCSP19-T2 [3]; T2) [µM]	IC50 (PxutCSP19-T2 [3]; T2, read-out: IC50) [µM]	inhibition at 20 µM (PxutCSP19-T1 [2]) [%]	inhibition at 20 µM (PxutCSP19-T2 [3]) [%]	also measured
CC(C)=CCC/C(C)=C\CO [Nerol]	34 ± 1.46	> 40	21.84 ± 0.02	34.75 ± 0.03	22.2 ± 0.56	33.8 ± 0.85	39.4	40.8	–
CCOCn1c(-c2ccc(Cl)cc2)c(C#N)c(Br)c1C(F)(F)F [Chlorfenapyr]	10.71 ± 0.09	58.7	6.47 ± 0.27	10.3 ± 0.43	6.68 ± 0.45	10.1 ± 0.68	63.8	64.3	–
CCOP(=S)(OCC)Oc1nc(Cl)c(Cl)cc1Cl [Chlorpyrifos]	5.52 ± 0.16	75.1	–	–	–	–	70.3	73.2	IC50 (PxutCSP19-T1 [2]): 5.87 ± 0.47 µM; IC50 (PxutCSP19-T2 [3]): 5.32 ± 0.4 µM
CCOP(=S)(OCC)O/N=C(\C#N)c1ccccc1 [Phoxim]	2.63 ± 0.12	87.3	–	–	–	–	83.1	84.8	IC50 (PxutCSP19-T1 [2]): 2.66 ± 0.2 µM; IC50 (PxutCSP19-T2 [3]): 3.16 ± 0.35 µM
CN(C)C(CSS(=O)(=O)O)CSS(=O)(=O)O [Monosultap]	–	53.6	11.1 ± 0.46	17.6 ± 0.73	11.8 ± 0.67	17.9 ± 1.02	54.8	61	Ki (PxutCSP19 [1]; Wildtype (WT), Ki = [IC50]/(1 + [1-NPN]/K1-NPN)): 11.1 ± 0.66 µM; IC50 (PxutCSP19 [1]; Wildtype (WT), ligand up to 20 μM or 36 μM, displacing half of protein/1-NPN fluorescence): 16.8 ± 1.01 µM
c1ccc(Nc2cccc3ccccc23)cc1 [1-NPN, N-phenyl-1-naphthylamine]	–	–	–	–	–	–	–	–	Kd (PxutCSP19 [4]): 2.65 ± 0.35 µM; Kd (PxutCSP19-T1 [5]): 2.12 ± 0.47 µM; Kd (PxutCSP19-T2 [6]): 2.5 ± 0.25 µM
O=C(NC(=O)c1c(F)cccc1F)Nc1cc(Cl)c(Oc2ncc(C(F)(F)F)cc2Cl)c(Cl)c1 [Chlorfluazuron]	11.9 ± 1.04	60.5	7.99 ± 0.94	12.7 ± 1.49	8.88 ± 0.4	13.5 ± 0.6	54.7	57	–
CCCCCCCCO [1-Octanol]	34.5 ± 1.11	> 40	21.7 ± 0.44	34.5 ± 0.7	22.8 ± 0.42	34.6 ± 0.64	43.5	42.7	–
COC(=O)N(C(=O)N1CO[C@@]2(C(=O)OC)Cc3cc(Cl)ccc3C2=N1)c1ccc(OC(F)(F)F)cc1 [Indoxacarb]	10.8 ± 0.65	61.5	7.08 ± 0.26	11.3 ± 0.41	7.98 ± 0.37	12.1 ± 0.56	59.1	62.5	–
C=CC(C)(O)CCC=C(C)CCC=C(C)C (mixture of isomers) [Nerolidol]	> 20	12.4	–	–	–	–	–	–	–
C=C1CCC2CC1C2(C)C (stereo not drawn) [β-Pinene]	> 20	31.2	–	–	–	–	–	–	–
CC/C=C\CCO [(Z)-3-Hexen-1-ol]	> 20	35.8	–	–	–	–	–	–	–
C=C(C)[C@H]1Cc2c(ccc3c2O[C@@H]2COc4cc(OC)c(OC)cc4[C@@H]2C3=O)O1 [Rotenone]	9.15 ± 0.76	67.6	–	–	–	–	61.8	64.4	IC50 (PxutCSP19-T1 [2]): 11.12 ± 0.04 µM; IC50 (PxutCSP19-T2 [3]): 11.3 ± 0.58 µM
O=C(NC(=O)c1c(F)cccc1F)Nc1cc(Cl)c(OC(F)(F)C(F)F)c(Cl)c1 [Hexaflumuron]	12.1 ± 2.36	59.5	7.78 ± 0.46	12.4 ± 0.73	8.02 ± 1.03	12.2 ± 1.56	56.5	59.6	–
C=C1CC/C=C(\C)CC[C@@H]2[C@@H]1CC2(C)C [β-Caryophyllene]	–	–	–	–	–	–	–	–	binding with PxutCSP19 (in words) (PxutCSP19 [1]; wildtype): no binding

More lines, main results first:

IC50 (PxutCSP19 [1]) [µM]	inhibition at 20 µM (PxutCSP19 [1]) [%]	Ki (PxutCSP19-T1 [2]; T1) [µM]	IC50 (PxutCSP19-T1 [2]; T1, read-out: IC50) [µM]	Ki (PxutCSP19-T2 [3]; T2) [µM]	IC50 (PxutCSP19-T2 [3]; T2, read-out: IC50) [µM]	Compound	inhibition at 20 µM (PxutCSP19-T1 [2]) [%]	inhibition at 20 µM (PxutCSP19-T2 [3]) [%]	also measured
34.1 ± 1.31	> 40	21.14 ± 0.1	33.64 ± 0.16	20.8 ± 1.1	31.6 ± 1.67	CC1=CCC(=C(C)C)CC1 [Terpinolene]	40.1	38.5	–
31 ± 0.97	> 40	17.7 ± 0.84	28.1 ± 1.33	18.8 ± 0.74	28.6 ± 1.12	COc1cc(C=O)cc(OC)c1O [Syringaldehyde]	42.7	42.2	–
31.3 ± 1.73	> 40	19.9 ± 1.17	31.7 ± 1.86	21.6 ± 0.72	32.8 ± 1.09	C=C/C(C)=C/CC=C(C)C [Ocimene]	43.1	35.2	–
33.8 ± 0.84	> 40	20.8 ± 0.85	33.1 ± 1.34	22.8 ± 0.59	34.6 ± 0.9	C=CC(C)(O)CCC=C(C)C (stereo not shown) [Linalool]	39.8	40.3	–
> 20	21.1	–	–	–	–	CCCCCC=O [Hexanal]	–	–	–
> 36	> 40	–	–	–	–	CC1=CCC(O)(C(C)C)CC1 (stereo not shown) [4-Terpineol]	–	–	1-NPN fluorescence displaced (PxutCSP19 [1]; wildtype, ligand at 36 μM): less than 50%
> 20	37.6	–	–	–	–	CCOC(C)=O [Ethyl acetate]	–	–	–
